Structures can show the parent of a compound that is named as a salt.
What follows are molecules tested against human recombinant H-PGDS (Homo sapiens, UniProt O60760) (assay: Fluorescence intensity h-PGDS TBA enzyme assay (PGH2 depletion, MDA/TBA fluorescence)). Details: 1:175,000 human recombinant H-PGDS, 42 second reaction, 3-fold serial dilutions, highest concentration typically 1 μM.
Assay type: biochemical
In short: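 Recombinant human H-PGDS preincubated with inhibitor 10 min at room temperature in pH 8.0 Tris, MgCl2, IgG, 2.5 mM glutathione, 0.5% DMSO. Reaction with 5.0 μM PGH2 stopped at 42 s with FeCl2/citric acid; MDA–TBA fluorescence (ex 530/em 565 nm) read after 70° C. IC50 by 4-parameter fit, 11 concentrations.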

Sequence of human recombinant H-PGDS (O60760 whole entry): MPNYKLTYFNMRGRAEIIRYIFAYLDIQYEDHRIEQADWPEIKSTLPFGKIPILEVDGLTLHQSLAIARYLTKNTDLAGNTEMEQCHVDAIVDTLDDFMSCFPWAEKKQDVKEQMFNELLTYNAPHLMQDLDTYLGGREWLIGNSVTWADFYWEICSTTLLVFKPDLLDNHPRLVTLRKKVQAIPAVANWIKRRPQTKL

Row | IC50 | SMILES
1 | 0.0238 µM | O=C(NC1CCC(O)(CO)CC1)c1ccc(-c2cccc(F)c2)nc1 (stereo not drawn) [Example 227, 6-(3-Fluorophenyl)-N-[4-hydroxy-4-(hydroxymethyl)cyclohexyl]nicotinamide]
2 | 0.0671 µM | CN1CCCCC1C(=O)N[C@H]1CC[C@@H](NC(=O)c2ccc(-c3cccc(F)c3)nc2)CC1 (relative stereo) [Example 217, 6-(3-fluorophenyl)-N-(cis-4-{[(1-methylpiperidin-2-yl)carbonyl]amino}cyclohexyl)nicotinamide]
3 | 0.0057 µM | CC(=O)NC(C)[C@H]1CC[C@H](NC(=O)c2ccc(-c3cccc(F)c3)nc2)CC1 (stereo partly drawn) [Example 147, N-[trans-4-(1-Acetamidoethyl]cyclohexyl]-6-(3-fluorophenyl)nicotinamide]
4 | 0.0118 µM | CC(C)(O)CNC(=O)[C@@H]1CCC[C@H](NC(=O)c2ccc(-c3cccc(F)c3)nc2)C1 (stereo in doubt) [Example 195, 6-(3-Fluorophenyl)-N-{(1S,3R)-3-[(2-hydroxy-2-methylpropyl)carbamoyl]cyclohexyl}nicotinamide]
5 | 0.0246 µM | CN1CCN(C(=O)N[C@@H]2CCC[C@H](NC(=O)c3ccc(-c4cccc(F)c4)nc3)C2)CC1 (relative stereo) [Example 268, N-(cis-3-({[6-(3-Fluorophenyl)pyridine-3-yl]carbonyl}amino)cyclohexyl]-4-methylpiperazine-1-carboxamide]
6 | 0.0092 µM | CCN1CCN(C(=O)C2(C#N)CCCC(NC(=O)c3ccc(-c4cccc(F)c4)nc3)C2)CC1 (stereo not drawn) [Example 264, N-{3-Cyano-3-[(4-ethylpiperazin-1-yl)carbonyl]cyclohexyl}-6-(3-fluorophenyl)nicotinamide]
7 | 0.004 µM | Cc1noc(C[C@H]2CC[C@H](NC(=O)c3ccc(-c4cccc(F)c4)nc3)CC2)n1 [Example 261, 6-(3-Fluorophenyl)-N-[trans 4-(3-methyl-[1,2,4]oxadiazol-5-ylmethyl)cyclohexyl]nicotinamide]
8 | 0.0523 µM | O=C(N[C@@H]1CC[C@@H](O)C1)c1ccc(-c2cccc(F)c2)nc1 [Example 130A, 6-(3-fluorophenyl)-N-[(1R,3R)-3-hydroxycyclopentyl]nicotinamide]
9 | 0.0059 µM | CC(O)[C@H]1CC[C@H](NC(=O)c2ccc(-c3cccc(F)c3)nc2)CC1 (stereo partly drawn) [Example 215, 6-(3-Fluorophenyl)-N-[trans-4-(1-hydroxyethyl)cyclohexyl]nicotinamide]
10 | 0.0943 µM | COC[C@H]1CCC[C@H]1NC(=O)c1ccc(-c2cccc(F)c2)nc1 [Example 10]
11 | 0.0049 µM | O=C(N[C@H]1CC[C@@H](C(=O)N2CC[C@H](F)C2)C1)c1ccc(-c2cccc(F)c2)nc1 [Example 159, 6-(3-fluorophenyl)-N-[(1S,3R)-3-{[(3S)-3-fluoropyrrolidin-1-yl]carbonyl}cyclopentyl]nicotinamide]
12 | 0.0292 µM | O=C(N[C@@H]1CCC[C@H](C(=O)NC2CCNCC2)C1)c1ccc(-c2cccc(F)c2)nc1 (relative stereo) [Example 191, 6-(3-Fluorophenyl)-N-cis-3-(piperidin-4-ylcarbamoyl)cyclohexyl]nicotinamide hydrochloride]
13 | 0.0312 µM | COC1(C(C)O)CCC(NC(=O)c2ccc(-c3cccc(F)c3)nc2)CC1 (stereo not drawn) [Example 232, 6-(3-Fluorophenyl)-N-[4-(1-hydroxyethyl)-4-methoxycyclohexyl]nicotinamide]
14 | 0.0202 µM | NC(=O)[C@@H]1CC[C@H](NC(=O)c2ccc(-c3cccc(F)c3)nc2)C1 [Example 175, N-[(1S,3R)-3-Carbamoylcyclopentyl]-6-(3-fluorophenyl)nicotinamide]
15 | 0.0096 µM | CC(C)(N)C(=O)N[C@H]1CC[C@H](NC(=O)c2ccc(-c3cccc(F)c3)nc2)CC1 [Example 113K, 6-(3-fluorophenyl)-N-{trans-4-[(2-methylalanyl)amino]cyclohexyl}nicotinamide]
16 | 0.00772 µM | O=C(NC1CCCCC1)c1ccc(-c2cccc(F)c2)nc1 [Example 18, N-Cyclohexyl-6-(3-fluorophenyl)nicotinamide]
17 | 0.0216 µM | CN1CCN(C(=O)[C@@H]2CC[C@H](NC(=O)c3ccc(-c4cccc(F)c4)nc3)C2)CC1=O [Example 173, 6-(3-Fluorophenyl)-N-{(1S,3R)-3-[(4-methyl-3-oxopiperazin-1-yl)carbonyl]cyclopentyl}nicotinamide]
18 | 0.0198 µM | O=C(N[C@@H]1CCC[C@@H](C(=O)NCCCO)C1)c1ccc(-c2cccc(F)c2)nc1 (relative stereo) [Example 242]
19 | 0.0116 µM | CN(C)CC(=O)N[C@H]1CC[C@H](NC(=O)c2ccc(-c3cccc(F)c3)nc2)CC1 [Example 145, N-{trans-4-[(N,N-Dimethylglycyl)amino]cyclohexyl}-6-(3-fluorophenyl)nicotinamide]
20 | 0.0191 µM | CN(C)C(=O)CNC(=O)[C@H]1CCC[C@@H](NC(=O)c2ccc(-c3cccc(F)c3)nc2)C1 (relative stereo) [Example 198]
21 | 0.0164 µM | N[C@H]1CC[C@H](NC(=O)c2ccc(-c3cccc(F)c3)nc2)CC1 [Example 142B, N-(trans-4-Aminocyclohexyl)-6-(3-fluorophenyl)nicotinamide]
22 | 0.0327 µM | CN1CCCC(C(=O)N[C@H]2CC[C@@H](NC(=O)c3ccc(-c4cccc(F)c4)nc3)CC2)C1 (relative stereo) [Example 219, 6-(3-fluorophenyl)-N-(cis-4-{[(1-methylpiperidin-3-yl)carbonyl]amino}cyclohexyl)nicotinamide]
23 | 0.0022 µM | CC(C)(O)C[C@H]1CC[C@H](NC(=O)c2ccc(-c3cccc(F)c3)nc2)CC1 [Example 152, 6-(3-Fluorophenyl)-N-[4-(trans 2-hydroxy-2-methylpropyl)cyclohexyl]nicotinamide]
24 | 0.00287 µM | O=C(NC1CCCCC1O)c1ccc(-c2cccc(F)c2)nc1 (stereo not drawn) [Example 17, 6-(3-Fluorophenyl)-N-(2-hydroxycyclohexyl)nicotinamide]
25 | 0.00128 µM | O=C(NC1CCC(F)(F)CC1)c1ccc(-c2cccc(F)c2)nc1 [Example 119, N-(4,4-Difluorocyclohexyl)-6-(3-fluorophenyl)nicotinamide]
26 | 0.0139 µM | CS(=O)(=O)N[C@H]1CCC[C@H](NC(=O)c2ccc(-c3cccc(F)c3)nc2)C1 (relative stereo) [Example 249, 6-(3-Fluoro-phenyl)-N-trans-(3-methanesulfonylamino-cyclohexyl)-nicotinamide]
27 | 0.0441 µM | O=C(N[C@H]1CCC[C@@H](CN2CC(O)C2)C1)c1ccc(-c2cccc(F)c2)nc1 (stereo in doubt) [Example 256, 6-(3-Fluorophenyl)-N-{(1S,3R)-3-[(3-hydroxyazetidin-1-yl)methyl]cyclohexyl}nicotinamide]
28 | 0.0265 µM | COCCNC(=O)[C@@H]1CCC[C@@H](NC(=O)c2ccc(-c3cccc(F)c3)nc2)C1 (relative stereo) [Example 240]
29 | 0.0091 µM | CC(=O)NC(C)(C)[C@H]1CC[C@H](NC(=O)c2ccc(-c3cccc(F)c3)nc2)CC1 [Example 113P, N-[trans-4-(1-acetamido-1-methylethyl)cyclohexyl]-6-(3-fluorophenyl)nicotinamide]
30 | 0.0689 µM | O=C(N[C@H]1CC[C@@H](O)C1)c1ccc(-c2cccc(F)c2)nc1 (relative stereo) [Example 158, 6-(3-fluorophenyl)-N-[cis-3-hydroxycyclopentyl]nicotinamide]
